Measurements: patent US10716805B2, “Formulation for release of nitric oxide” (Glanotech Limited, priority 2018, dated 2020)
“Also recorded” adds a separate entry of the source.

Assays:
[1] = system: corpus cavernosum tissue; assay: In-vitro relaxation/contraction of rat corpus cavernosum tissue (force displacement transducer); type: cell-based; conditions: for relaxation of the tissue of the corpora cavernosa pre-constricted with norepinephrine (vasodilatory effect): scalar solutions 10^−s M to 10^−3 M after norepinephrine constriction of about 1.5 mN
From the text: In particular, this model is used for planning experiments aimed at checking the vasodilatory action of NO on vascular smooth muscle cells, since the methodology presented by the authors allows samples of corpus cavernosum tissue to be obtained from rats, on which studies of response to various exogenous molecules can be conducted, to detect their relaxation/contraction effects on smooth muscle cells.
We used 20 adult Wistar-type rats weighing between 175 and 200 g; after having sacrificed the rats we obtained corpus cavernosum tissues as described by the methods and placed these in a Krebs solution (in mM: 118 NaCl, 4.7 KCl, 1.2 KH2PO4, 1.2 MgSO4, 1.5 CaCl2, 25 NaHCO3, 11 glucose).
A single sample was taken from each rat.
The excised tissues were then put in 10 mL Krebs solution and held in place by two metal arms to allow assessment of any changes in the forces observed and assessed by the Grass FT03 model (using a force displacement transducer apparatus to assess the muscle tension of tissues, calibrated in mN). The saline solution containing the tissues (Krebs solution) was kept at pH 7.4±0.1 and at 37° C., with oxygenation using a mixture of 95% oxygen and 5% carbon dioxide.

[2] = Formation and stability of nitrosothiol after mixing of phases A and B (visible UV absorption spectrum); type: physicochemical; conditions: at room temperature
Experimental: The reaction mixture is prepared by dissolving the following amounts of reagents in 5 mL propylene glycol: fumaric acid 10 mM; ascorbic acid between 30 and 50 mM (PHASE A).
A solid phase, consisting of a mixture of pantetheine, sodium nitrite and powdered copper sulfate, is added rapidly to the solution obtained, in a quantity such that their concentration in the final reaction volume amounts to: pantetheine 10 mM, sodium nitrite 15 mM; copper sulfate 1 mM (PHASE B). Mixing is done at room temperature (25° C.) (Fukuto et al., 2013).
The S-nitroso compound observed, which was absent […] the phases were mixed, is attributable to the S-nitroso pantetheine derivative.
At the same time, owing to the catalytic action of the traces of copper present, the corresponding nitrosothiol is also formed, and remains sufficiently stable for more than 1 hour at room temperature. Therefore, this formulation allows the rapid formation of nitrogen monoxide in a rapidly diffusible form and, at the same time, the formation of nitrosothiol that is sufficiently stable for the sustained release of nitrogen monoxide over time.

[3] = system: rat model with type 1 diabetes induced by streptozotocin; assay: In-vivo test of sexual function in diabetic rat models; conditions: for EL (Ejaculation latency) / IF (Introduction frequency) / IL (Introduction latency) / MF (Mating frequency) / ML (Mating latency) / PEI (Post-ejaculatory interval): diabetic rat
Experimental: Next we tested the possible beneficial effects of SNO-pantetheine on sexual function in a rat model with type 1 diabetes induced by streptozotocin, which is typically accompanied by deficit of sexual activity.
In short, male Wistar rats were assigned to a cage (45×50×35 cm) covered in glass and lit with red light. Training took place every day after 5 pm for about 30 min, and after 10 minutes of acclimatization a female rat in an oestrogenic phase was introduced into the cage. We then observed the sexual behaviour of diabetic rats vs. the relevant controls by measuring standard parameters (Burnett et al., 1995).

[4] = SNO-pantetheine group, Day 0 (baseline)
[5] = topical SNO-pantetheine, Day 30

Compound | constriction of corpus cavernosum tissue ([1]; scalar solutions 10^−8 M to 10^−3 M, Krebs solution pH 7.4, 37° C.) | relaxation of the tissue of the corpora cavernosa pre-constricted with norepinephrine (vasodilatory effect) [1] | time nitrosothiol remains sufficiently stable [2] | EL (Ejaculation latency) [3, 4] [s] | IF (Introduction frequency) [3, 4] [number] | IL (Introduction latency) [3, 4] [s] | MF (Mating frequency) [3, 4] [number] | ML (Mating latency) [3, 4] [s] | PEI (Post-ejaculatory interval) [3, 4] [s] | EL (Ejaculation latency) [3, 5] [s] | IF (Introduction frequency) [3, 5] [number] | IL (Introduction latency) [3, 5] [s] | MF (Mating frequency) [3, 5] [number] | ML (Mating latency) [3, 5] [s] | PEI (Post-ejaculatory interval) [3, 5] [s] | effect on sexual behaviour in the diabetic rat model ([3]; topical application, vs. all the parameters assessed)
NC[C@H](O)c1ccc(O)c(O)c1 [norepinephrine, reference compound] | about 1.5 mN |  |  |  |  |  |  |  |  |  |  |  |  |  |  | 
S-nitrosothiol of alpha lipoic acid |  | behaviour that is very similar to that of the S-nitrosothiol of pantetheine; also recorded: exhibit the desired vasodilatory effect |  |  |  |  |  |  |  |  |  |  |  |  |  | 
S-nitrosothiol of pantetheine [SNO-pantetheine] |  | effect of the norepinephrine was cancelled out; also recorded: exhibit the desired vasodilatory effect | more than 1 hour | 423.2 ± 12.5 | 11.2 ± 0.9 | 52.3 ± 3.9 | 12.0 ± 1.7 | 42.5 ± 2.9 | 343.3 ± 10.9 | 375.8 ± 10.8 | 14.5 ± 0.8 | 44.7 ± 4.2 | 11.2 ± 0.3 | 34.3 ± 2.5 | 386.2 ± 14.3 | able to induce an increase in sexual behaviour
